Calls of active or inactive are those of the source. The rule behind the calls is not given here.
What was measured:
Digitaria [1] = test: Pre-emergence herbicidal activity against Digitaria adscendens under greenhouse condition at 750 g /ha measured after 24 days by spray method; format: functional; conditions: in Digitaria adscendens, 576 h, read-out: GI
[2] = tested on: Brassica rapa subsp. oleifera; test: Post-emergence herbicidal activity against one-leaf stage Brassica rapa subsp. oleifera under greenhouse condition at 150 g /ha measured after 24 days by spray method; format: functional; conditions: 576 h, read-out: GI
[3] = tested on: Brassica rapa subsp. oleifera; test: Post-emergence herbicidal activity against one-leaf stage Brassica rapa subsp. oleifera under greenhouse condition at 300 g /ha measured after 24 days by spray method; format: functional; conditions: 576 h, read-out: GI
[4] = tested on: Brassica rapa subsp. oleifera; test: Post-emergence herbicidal activity against one-leaf stage Brassica rapa subsp. oleifera under greenhouse condition at 750 g /ha measured after 24 days by spray method; format: functional; conditions: 576 h, read-out: GI
Spirodela polyrhiza [5] = test: Bleaching herbicidal activity in Spirodela polyrhiza fronds cultured in compound-containing in medium assessed as chlorophyll inhibition at 1 ug/ml after 7 days; format: functional; conditions: 168 h
Amaranthus retroflexus [6] = test: Post-emergence herbicidal activity against one-leaf stage Amaranthus retroflexus under greenhouse condition at 75 g /ha measured after 24 days by spray method; format: functional; conditions: 576 h, read-out: GI
[7] = tested on: Brassica rapa subsp. oleifera; test: Post-emergence herbicidal activity against one-leaf stage Brassica rapa subsp. oleifera under greenhouse condition at 60 g /ha measured after 24 days by spray method; format: functional; conditions: 576 h, read-out: GI
Amaranthus retroflexus [8] = test: Post-emergence herbicidal activity against one-leaf stage Amaranthus retroflexus under greenhouse condition assessed as complete bleaching of leaves at 15 g /ha measured after 24 days by spray method; format: functional, organism-based
[9] = tested on: Brassica rapa subsp. oleifera; test: Post-emergence herbicidal activity against one-leaf stage Brassica rapa subsp. oleifera under greenhouse condition at 15 g /ha measured after 24 days by spray method; format: functional; conditions: 576 h, read-out: GI
Amaranthus retroflexus [10] = test: Post-emergence herbicidal activity against one-leaf stage Amaranthus retroflexus under greenhouse condition assessed as complete bleaching of leaves at 150 g /ha measured after 24 days by spray method; format: functional, organism-based
Amaranthus retroflexus [11] = test: Pre-emergence herbicidal activity against Amaranthus retroflexus under greenhouse condition at 750 g /ha measured after 24 days by spray method; format: functional; conditions: 576 h, read-out: GI
Digitaria [12] = test: Post-emergence herbicidal activity against one-leaf stage of Digitaria adscendens under greenhouse condition at 750 g /ha measured after 24 days by spray method; format: functional; conditions: in Digitaria adscendens, 576 h, read-out: GI
[13] = tested on: Brassica rapa subsp. oleifera; test: Post-emergence herbicidal activity against one-leaf stage Brassica rapa subsp. oleifera under greenhouse condition assessed as complete bleaching of leaves at 150 g /ha measured after 24 days by spray method; format: functional, organism-based
Amaranthus retroflexus [14] = test: Post-emergence herbicidal activity against one-leaf stage Amaranthus retroflexus under greenhouse condition at 300 g /ha measured after 24 days by spray method; format: functional; conditions: 576 h, read-out: GI
Amaranthus retroflexus [15] = test: Post-emergence herbicidal activity against one-leaf stage of Amaranthus retroflexus under greenhouse condition at 750 g /ha measured after 24 days by spray method; format: functional; conditions: 576 h, read-out: GI
Amaranthus retroflexus [16] = test: Post-emergence herbicidal activity against one-leaf stage Amaranthus retroflexus under greenhouse condition at 150 g /ha measured after 24 days by spray method; format: functional; conditions: 576 h, read-out: GI
Amaranthus retroflexus [17] = test: Post-emergence herbicidal activity against one-leaf stage Amaranthus retroflexus under greenhouse condition at 30 g /ha measured after 24 days by spray method; format: functional; conditions: 576 h, read-out: GI
[18] = tested on: Brassica rapa subsp. oleifera; test: Post-emergence herbicidal activity against one-leaf stage Brassica rapa subsp. oleifera under greenhouse condition assessed as complete bleaching of leaves at 7.5 g /ha measured after 24 days by spray method; format: functional, organism-based
[19] = tested on: Brassica rapa subsp. oleifera; test: Post-emergence herbicidal activity against one-leaf stage Brassica rapa subsp. oleifera under greenhouse condition at 600 g /ha measured after 24 days by spray method; format: functional; conditions: 576 h, read-out: GI
Amaranthus retroflexus [20] = test: Post-emergence herbicidal activity against one-leaf stage Amaranthus retroflexus under greenhouse condition at 15 g /ha measured after 24 days by spray method; format: functional; conditions: 576 h, read-out: GI
Amaranthus retroflexus [21] = test: Post-emergence herbicidal activity against one-leaf stage Amaranthus retroflexus under greenhouse condition assessed as complete bleaching of leaves at 75 g /ha measured after 24 days by spray method; format: functional, organism-based
[22] = tested on: Brassica rapa subsp. oleifera; test: Post-emergence herbicidal activity against one-leaf stage Brassica rapa subsp. oleifera under greenhouse condition at 30 g /ha measured after 24 days by spray method; format: functional; conditions: 576 h, read-out: GI
Amaranthus retroflexus [23] = test: Post-emergence herbicidal activity against one-leaf stage Amaranthus retroflexus under greenhouse condition assessed as complete bleaching of leaves at 30 g /ha measured after 24 days by spray method; format: functional, organism-based
Amaranthus retroflexus [24] = test: Post-emergence herbicidal activity against one-leaf stage Amaranthus retroflexus under greenhouse condition assessed as complete bleaching of leaves at 300 g /ha measured after 24 days by spray method; format: functional, organism-based
Amaranthus retroflexus [25] = test: Post-emergence herbicidal activity against one-leaf stage Amaranthus retroflexus under greenhouse condition assessed as complete bleaching of leaves at 60 g /ha measured after 24 days by spray method; format: functional, organism-based
[26] = tested on: Brassica rapa subsp. oleifera; test: Post-emergence herbicidal activity against one-leaf stage Brassica rapa subsp. oleifera under greenhouse condition assessed as complete bleaching of leaves at 30 g /ha measured after 24 days by spray method; format: functional, organism-based
[27] = tested on: Brassica rapa subsp. oleifera; test: Post-emergence herbicidal activity against one-leaf stage Brassica rapa subsp. oleifera under greenhouse condition assessed as complete bleaching of leaves at 600 g /ha measured after 24 days by spray method; format: functional, organism-based
Spirodela polyrhiza [28] = test: Bleaching herbicidal activity in Spirodela polyrhiza fronds cultured in compound-containing in medium assessed as chlorophyll inhibition at 10 ug/ml after 7 days; format: functional; conditions: 168 h
[29] = tested on: Brassica rapa subsp. oleifera; test: Post-emergence herbicidal activity against one-leaf stage Brassica rapa subsp. oleifera under greenhouse condition at 7.5 g /ha measured after 24 days by spray method; format: functional; conditions: 576 h, read-out: GI
Echinochloa crus-galli [30] = test: Pre-emergence herbicidal activity against Echinochloa crus-galli (barnyard grass) under greenhouse condition at 750 g /ha measured after 24 days by spray method; format: functional; conditions: 576 h, read-out: GI
[31] = tested on: Brassica rapa subsp. oleifera; test: Post-emergence herbicidal activity against one-leaf stage Brassica rapa subsp. oleifera under greenhouse condition at 75 g /ha measured after 24 days by spray method; format: functional; conditions: 576 h, read-out: GI
Echinochloa crus-galli [32] = test: Post-emergence herbicidal activity against one-leaf stage of Echinochloa crus-galli (barnyard grass) under greenhouse condition at 750 g /ha measured after 24 days by spray method; format: functional; conditions: 576 h, read-out: GI
Amaranthus retroflexus [33] = test: Post-emergence herbicidal activity against one-leaf stage Amaranthus retroflexus under greenhouse condition at 600 g /ha measured after 24 days by spray method; format: functional; conditions: 576 h, read-out: GI
[34] = tested on: Brassica rapa subsp. oleifera; test: Post-emergence herbicidal activity against one-leaf stage Brassica rapa subsp. oleifera under greenhouse condition assessed as complete bleaching of leaves at 75 g /ha measured after 24 days by spray method; format: functional, organism-based
[35] = tested on: Brassica rapa subsp. oleifera; test: Post-emergence herbicidal activity against one-leaf stage Brassica rapa subsp. oleifera under greenhouse condition assessed as complete bleaching of leaves at 300 g /ha measured after 24 days by spray method; format: functional, organism-based
Amaranthus retroflexus [36] = test: Post-emergence herbicidal activity against one-leaf stage Amaranthus retroflexus under greenhouse condition at 7.5 g /ha measured after 24 days by spray method; format: functional; conditions: 576 h, read-out: GI
Amaranthus retroflexus [37] = test: Post-emergence herbicidal activity against one-leaf stage Amaranthus retroflexus under greenhouse condition assessed as complete bleaching of leaves at 7.5 g /ha measured after 24 days by spray method; format: functional, organism-based
[38] = tested on: Brassica rapa subsp. oleifera; test: Post-emergence herbicidal activity against one-leaf stage Brassica rapa subsp. oleifera under greenhouse condition assessed as complete bleaching of leaves at 15 g /ha measured after 24 days by spray method; format: functional, organism-based
[39] = tested on: Brassica rapa subsp. oleifera; test: Pre-emergence herbicidal activity against Brassica rapa subsp. oleifera under greenhouse condition at 750 g /ha measured after 24 days by spray method; format: functional; conditions: 576 h, read-out: GI
Amaranthus retroflexus [40] = test: Post-emergence herbicidal activity against one-leaf stage Amaranthus retroflexus under greenhouse condition assessed as complete bleaching of leaves at 600 g /ha measured after 24 days by spray method; format: functional, organism-based
Amaranthus retroflexus [41] = test: Post-emergence herbicidal activity against one-leaf stage Amaranthus retroflexus under greenhouse condition at 60 g /ha measured after 24 days by spray method; format: functional; conditions: 576 h, read-out: GI
[42] = tested on: Brassica rapa subsp. oleifera; test: Post-emergence herbicidal activity against one-leaf stage Brassica rapa subsp. oleifera under greenhouse condition assessed as complete bleaching of leaves at 60 g /ha measured after 24 days by spray method; format: functional, organism-based

Cc1cc(-c2cccc(C(F)(F)F)c2)c(Oc2ccc(Cl)c(Cl)c2)nn1
inhibition of growth at 750 g/ha (Digitaria [1]): 6%
inhibition of growth at 150 g/ha [2]: 100%
inhibition of growth at 300 g/ha [3]: 100%
inhibition of growth at 750 g/ha [4]: 100%
inhibition at 1 µg/mL (Spirodela polyrhiza [5]): 93%
inhibition of growth at 75 g/ha (Amaranthus retroflexus [6]): 85%
inhibition of growth at 60 g/ha [7]: 100%
Activity (Amaranthus retroflexus [8]): Active
inhibition of growth at 15 g/ha [9]: 89%
Activity (Amaranthus retroflexus [10]): Active
inhibition of growth at 750 g/ha (Amaranthus retroflexus [11]): 0%
inhibition of growth at 750 g/ha (Digitaria [12]): 100%
Activity [13]: Active
inhibition of growth at 300 g/ha (Amaranthus retroflexus [14]): 100%
inhibition of growth at 750 g/ha (Amaranthus retroflexus [15]): 100%
inhibition of growth at 150 g/ha (Amaranthus retroflexus [16]): 100%
inhibition of growth at 30 g/ha (Amaranthus retroflexus [17]): 42%
Activity [18]: Active
inhibition of growth at 600 g/ha [19]: 100%
inhibition of growth at 15 g/ha (Amaranthus retroflexus [20]): 34%
Activity (Amaranthus retroflexus [21]): Active
inhibition of growth at 30 g/ha [22]: 100%
Activity (Amaranthus retroflexus [23]): Active
Activity (Amaranthus retroflexus [24]): Active
Activity (Amaranthus retroflexus [25]): Active
Activity [26]: Active
Activity [27]: Active
inhibition at 10 µg/mL (Spirodela polyrhiza [28]): 96%
inhibition of growth at 7.5 g/ha [29]: 58%
inhibition of growth at 750 g/ha (Echinochloa crus-galli [30]): 19%
inhibition of growth at 75 g/ha [31]: 100%
inhibition of growth at 750 g/ha (Echinochloa crus-galli [32]): 87%
inhibition of growth at 600 g/ha (Amaranthus retroflexus [33]): 100%
Activity [34]: Active
Activity [35]: Active
inhibition of growth at 7.5 g/ha (Amaranthus retroflexus [36]): 32%
Activity (Amaranthus retroflexus [37]): Active
Activity [38]: Active
inhibition of growth at 750 g/ha [39]: 27%
Activity (Amaranthus retroflexus [40]): Active
inhibition of growth at 60 g/ha (Amaranthus retroflexus [41]): 47%
Activity [42]: Active

Cc1cc(-c2cccc(C(F)(F)F)c2)c(Oc2ccc(Br)cc2)nn1
inhibition of growth at 750 g/ha (Digitaria [1]): 64%
inhibition of growth at 150 g/ha [2]: 100%
inhibition of growth at 300 g/ha [3]: 100%
inhibition of growth at 750 g/ha [4]: 94%
inhibition at 1 µg/mL (Spirodela polyrhiza [5]): 80%
inhibition of growth at 75 g/ha (Amaranthus retroflexus [6]): 88%
inhibition of growth at 60 g/ha [7]: 100%
Activity (Amaranthus retroflexus [8]): Active
inhibition of growth at 15 g/ha [9]: 94%
Activity (Amaranthus retroflexus [10]): Active
inhibition of growth at 750 g/ha (Amaranthus retroflexus [11]): 94%
inhibition of growth at 750 g/ha (Digitaria [12]): 93%
Activity [13]: Active
inhibition of growth at 300 g/ha (Amaranthus retroflexus [14]): 100%
inhibition of growth at 750 g/ha (Amaranthus retroflexus [15]): 100%
inhibition of growth at 150 g/ha (Amaranthus retroflexus [16]): 100%
inhibition of growth at 30 g/ha (Amaranthus retroflexus [17]): 35%
Activity [18]: Active
inhibition of growth at 600 g/ha [19]: 100%
inhibition of growth at 15 g/ha (Amaranthus retroflexus [20]): 28%
Activity (Amaranthus retroflexus [21]): Active
inhibition of growth at 30 g/ha [22]: 100%
Activity (Amaranthus retroflexus [23]): Active
Activity (Amaranthus retroflexus [24]): Active
Activity (Amaranthus retroflexus [25]): Active
Activity [26]: Active
Activity [27]: Active
inhibition at 10 µg/mL (Spirodela polyrhiza [28]): 90%
inhibition of growth at 7.5 g/ha [29]: 68%
inhibition of growth at 750 g/ha (Echinochloa crus-galli [30]): 60%
inhibition of growth at 75 g/ha [31]: 100%
inhibition of growth at 750 g/ha (Echinochloa crus-galli [32]): 60%
inhibition of growth at 600 g/ha (Amaranthus retroflexus [33]): 100%
Activity [34]: Active
Activity [35]: Active
inhibition of growth at 7.5 g/ha (Amaranthus retroflexus [36]): 25%
Activity (Amaranthus retroflexus [37]): Active
Activity [38]: Active
inhibition of growth at 750 g/ha [39]: 61%
Activity (Amaranthus retroflexus [40]): Active
inhibition of growth at 60 g/ha (Amaranthus retroflexus [41]): 51%
Activity [42]: Active

Reference: ChEMBL document CHEMBL3045111, “Synthesis and herbicidal activities of novel 3-(substituted benzyloxy or phenoxy)-6-methyl-4-(3-trifluoromethylphenyl)pyridazine derivatives” (2012)
